Experimental data: patent EP0545103A1, “Insecticidal, acaricidal and molluscicidal 1-(substituted) thioalkylpyrroles” (priority 1991, dated 1993)

Key:
Format in all cases: in vivo
[1] = tested on: Heliothis virescens, egg, tobacco budworm; assay: Tobacco budworm egg test, dipped cotton leaf and eggs; set-up: key: 0: no effect; 10-25% kill; 26-35% kill; 36-45% kill; 46-55% kill; 56-65% kill; 66-75% kill; 76-85% kill; 86-99% kill; 9: 100% kill; details: 1000 ppm; mortality rating after 3 days
Description: (§1) Test solutions are prepared by dissolving the test compound in a 35% acetone in water mixture to give a concentration of 10,000 ppm. Subsequent dilutions are made with water as needed.
Heliothis virescens, egg, tobacco budworm
A young cotton leaf about 6-7cm in length is dipped in an agitated test suspension for about 3 seconds. Eggs are collected on a cheesecloth and the cloth is cut into 10-20mm squares, each containing approximately 50-100 eggs which are 6-30 hours old. The egg-containing cheesecloth square is similarly dipped in a test suspension and placed on a treated cotton leaf. The combination is dried in a hood and then placed in an 8 ounce Dixie® cup #2168-ST (240ml volume, 6cm tall, 9.5cm top diameter, 8.0cm bottom diameter) into which a 5cm length of damp dental wick has been placed. The cup is covered with a clear plastic lid and held for 3 days, after which mortality counts are made.
(§2) All of the above tests are rated according to the rating scale shown below.

[2] = tested on: Spodoptera eridania, 3rd instar larvae, southern armyworm; assay: Southern armyworm 3rd instar test, dipped limabean leaf; details: for ARMYWORM Day 3: rating at 3 days; for ARMYWORM Day 5: rating at 5 days
Description: as §1
Spodoptera eridania, 3rd instar larvae, southern armyworm
A Sieva limabean leaf expanded to 7-8 cm in length is dipped in the test solution with agitation for 3 seconds and allowed to dry in a hood. The leaf is then placed in a 100 x 10 mm petri dish containing a damp filterpaper on the bottom and ten 3rd instar caterpillars. At 3 and 5 days, observations are made of mortality, reduced feeding, or any interference with normal molting.
as §2

[3] = tested on: Spodoptera eridania, 3rd instar larvae, southern armyworm; assay: Southern armyworm systemic uptake (stem systemic) test; set-up: key: 0: no effect; 10-25% kill; 26-35% kill; 36-45% kill; 46-55% kill; 56-65% kill; 66-75% kill; 76-85% kill; 86-99% kill; 9: 100% kill; details: cut stem in emulsion 3 days
Text: Spodoptera eridania, systemic uptake, 3rd instar larvae, southern armyworm
Subsequent 10-fold dilutions are made with water as needed. Sieva limabean plants, with the primary leaves expanded to a length of 7-8 cm, are cut off at least 3 cm above the soil level to avoid contamination with soil bacteria which will cause decay of the stem during the test. The cut stem is placed in the test emulsion and wrapped with a bit of cotton to hold the stem off the bottom of the bottle and to limit evaporation. The treated stem is thus maintained for 3 days at 27° C to allow the test compound to be taken up into the plant. Following this, one leaf is removed from the plant and placed in a 100 x 10 mm petri dish with 10 southern armyworms as described above. Mortality counts and observations of feeding damage are made 3 and 5 days later.
as §2

[4] = tested on: Tetranychus urticae (OP-resistant strain), 2-spotted spider mite; assay: 2-spotted spider mite test, dipped infested limabean plants; set-up: key: 0: no effect; 10-25% kill; 26-35% kill; 36-45% kill; 46-55% kill; 56-65% kill; 66-75% kill; 76-85% kill; 86-99% kill; 9: 100% kill; details: for OP-RESISTANT MITES Adult: mortality rating after 2 days; for OP-RESISTANT MITES Egg / OP-RESISTANT MITES Nymph: rating after 5 days
Description: as §1
Tetranychus urticae (OP-resistant strain), 2-spotted spider mite
Sieva limabean plants with primary leaves expanded to 7-8 cm are selected and cut back to one plant per pot. A small piece is cut from an infested leaf taken from the main colony and placed on each leaf of the test plants. This is done about 2 hours before treatment to allow the mites to move over to the test plant and to lay eggs. The size of the cut, infested leaf is varied to obtain about 100 mites per leaf. At the time of test treatment, the piece of leaf used to transfer the mites is removed and discarded. The newly mite-infested plants are dipped in the test solution for 3 seconds with agitation and set in the hood to dry. After 2 days one leaf is removed and mortality counts are made. After 5 days, another leaf is removed and observations are made of mortality of the eggs and/or newly emerged nymphs.
as §2

[5] = tested on: Aphis fabae, mixed instar, bean aphid; assay: Bean aphid spray test on nasturtium; set-up: key: 0: no effect; 10-25% kill; 26-35% kill; 36-45% kill; 46-55% kill; 56-65% kill; 66-75% kill; 76-85% kill; 86-99% kill; 9: 100% kill; details: 100 ppm; spray; mortality rating after 2 days
Description: as §1
Aphis fabae, mixed instar, bean aphid
Pots containing single nasturtium plants (Tropaeolum sp.) about 5 cm tall are infested with about 100-200 aphids one day prior to treatment. Each pot is sprayed with the test solution for 2 revolutions of a 4 rpm turntable in a hood, using a #154 DeVilbiss atomizer. The spray tip is held about 15 cm from the plant and the spray directed so as to give complete coverage of the plants and the aphids. The sprayed pots are set on their sides on white enamel trays and mortality estimates are made after 2 days.
as §2

[6] = tested on: Empoasca abrupta, adult, western potato leafhopper; assay: Western potato leafhopper contact test, dipped limabean leaf; details: mortality rating after 2 days
Description: as §1
Empoasca abrupta, adult, western potato leafhopper
A Sieva limabean leaf about 5 cm long is dipped in the test solution for 3 seconds with agitation and placed in a hood to dry. The treated leaf is placed in a 100 x 10 mm petri dish containing a moist filter paper and about 10 adult leafhoppers are added. After 2 days, mortality counts are made.
as §2

[7] = tested on: Empoasca abrupta, adult, western potato leafhopper; assay: Western potato leafhopper systemic uptake test; set-up: key: 0: no effect; 10-25% kill; 26-35% kill; 36-45% kill; 46-55% kill; 56-65% kill; 66-75% kill; 76-85% kill; 86-99% kill; 9: 100% kill; details: 100 ppm; cut stem in emulsion 3 days; mortality rating after 2 days
Description: Empoasca abrupta, adult, western potato leafhopper Systemic Uptake
An emulsion containing 0.1 gm of the test material, 0.2 gm of Emulphor EL-620® emulsifier, 10 mL of acetone and 90 mL of water is prepared and diluted 10-fold with water to give a 100 ppm emulsion. Subsequent 10-fold dilutions are made with water as needed. Sieva limabean plants, with the primary leaves expanded to a length of 7-8 cm, are cut off at least 3 cm above the soil level to avoid contamination with soil bacteria which will cause decay of the stem during the test. The cut stem is placed in the test emulsion and wrapped with a bit of cotton to hold the stem off the bottom of the bottle and to limit evaporation. The treated stem is maintained for 3 days at 27°C to allow the test compound to be taken up into the plant. Following this, one leaf is removed from the plant and placed in a 100 x 10 mm petri dish containing a moist filter paper and about 10 adult leafhoppers as described above. Mortality counts are made after 2 days.
as §2

[8] = tested on: Heliothis virescens, 3rd instar tobacco budworm; assay: Tobacco budworm 3rd instar test, dipped cotton cotyledons; set-up: key: 0: no effect; 10-25% kill; 26-35% kill; 36-45% kill; 46-55% kill; 56-65% kill; 66-75% kill; 76-85% kill; 86-99% kill; 9: 100% kill; details: mortality rating after 3 days
Description: as §1
Heliothis virescens, 3rd instar tobacco budworm
Cotton cotyledons are dipped in the test solution and allowed to dry in a hood. When dry, each is cut into quarters and ten sections are placed individually in 30 mL plastic medicine cups containing a 5-7mm long piece of damp dental wick. One 3rd instar caterpillar is added to each cup and the cup is sealed with MYLAR® film. Treatments are maintained for 3 days before a mortality count and observation of reduction in feeding damage are made.
as §2

[9] = tested on: Spodoptera eridania, 3rd instar larvae, southern armyworm; assay: Southern armyworm 7-day residual test; details: R designates Residual: 7-day residual foliage, concentration not given
Description: as §1
Spodoptera eridania, 3rd instar larvae, southern armyworm, 7-day residual
The limabean leaves treated in the above test are maintained under high intensity lamps in the greenhouse for 7 days. These lamps duplicate the effects of a bright sunny day in June in New Jersey and are kept on for 14 hour day length. After 7 days, the foliage is sampled and assayed as in the above-said test.
as §2

[10] = tested on: Diabrotic undecimpunctata howardi, 3rd instar southern corn rootworm; assay: Southern corn rootworm soil test; set-up: key: 0: no effect; 10-25% kill; 26-35% kill; 36-45% kill; 46-55% kill; 56-65% kill; 66-75% kill; 76-85% kill; 86-99% kill; 9: 100% kill; details: mortality rating after 6 days
Description: Diabrotic undecimpunctata howardi, 3rd instar southern corn rootworm
One cc of fine talc is placed in a 30 mL wide-mouth screw-top glass jar. One mL of the appropriate acetone test solution is pipetted onto the talc so as to provide 1.25 and 0.25 mg of active ingredient per jar. The jars are set under a gentle air flow until the acetone is evaporated. The dried talc is loosened, 1 cc of millet seed is added to serve as food for the insects and 25 mL of moist soil is added to each jar. The jar is capped and the contents thoroughly mixed on a Vortex Mixer. Following this, ten 3rd instar rootworms are added to each jar and the jars are loosely capped to allow air exchange for the larvae. The treatments are held for 6 days when mortality counts are made. Missing larvae are presumed dead, since they decompose rapidly and can not be found. The concentrations used in this test correspond approximately to 50 and 10 kg/ha, respectively.
as §2

Compound | TOBACCO BUDWORM Egg [1] | ARMYWORM Day 3 ([2]; 10 ppm) | ARMYWORM Day 5 ([2]; 10 ppm) | ARMYWORM Day 3 ([2]; 100 ppm) | ARMYWORM Day 5 ([2]; 100 ppm) | ARMYWORM Day 3 ([2]; 1000 ppm) | ARMYWORM Day 5 ([2]; 1000 ppm) | ARMYWORM Stem Sys [3] | OP-RESISTANT MITES Adult ([4]; 10 ppm) | OP-RESISTANT MITES Egg ([4]; 10 ppm) | OP-RESISTANT MITES Adult ([4]; 100 ppm) | OP-RESISTANT MITES Egg ([4]; 100 ppm) | OP-RESISTANT MITES Adult ([4]; 300 ppm) | OP-RESISTANT MITES Egg ([4]; 300 ppm) | OP-RESISTANT MITES Nymph ([4]; 300 ppm) | APHIDS [5] | LEAFHOPPER Contact ([6]; 10 ppm) | LEAFHOPPER Contact ([6]; 100 ppm) | LEAFHOPPER Systemic [7] | also measured
CC(C)OC(=S)SCn1c(-c2ccc(Cl)cc2)c(C#N)c(Cl)c1C(F)(F)F [Example 22] | 0 | 9 (100% kill) | 9 (100% kill) | 9 (100% kill) | 9 (100% kill) | 9 (100% kill) | 9 (100% kill) | 0 | 9 (100% kill) | 9 (100% kill) | 9 (100% kill) | 9 (100% kill) | 9 (100% kill) | 0 | 9 (100% kill) | 7 (76-85% kill) | 9 (100% kill) | 9 (100% kill) | 0 | 
N#Cc1c(Cl)c(C(F)(F)F)n(CSC2=NCCCN2)c1-c1ccc(Cl)cc1 [Example 5] | 0 |  |  |  |  |  |  | 8 (86-99% kill) | 0 | 0 |  | 9 (100% kill) |  | 0 | 0 | 0 |  |  | 8 (86-99% kill) | TOBACCO BUDWORM 3rd Instar ([8]; 10 ppm): 0; TOBACCO BUDWORM 3rd Instar ([8]; 100 ppm): 9 (100% kill); TOBACCO BUDWORM 3rd Instar ([8]; 1000 ppm): 9 (100% kill); ARMYWORM Day 3 R ([9]; rating at 3 days): 9 (100% kill); ARMYWORM Day 5 R ([9]; rating at 5 days): 9 (100% kill); SOUTHERN CORN ROOTWORM ([10]; 50 (ppm as headed)): 0; OP-RESISTANT MITES Nymph ([4]; 10 ppm): 0
CCOC(=S)SCn1c(-c2ccc(Cl)cc2)c(C#N)c(Cl)c1C(F)(F)F [Example 23] | 0 | 9 (100% kill) | 9 (100% kill) | 9 (100% kill) | 9 (100% kill) | 9 (100% kill) | 9 (100% kill) |  | 9 (100% kill) | 9 (100% kill) | 9 (100% kill) | 9 (100% kill) | 9 (100% kill) | 0 | 9 (100% kill) | 5 (56-65% kill) | 9 (100% kill) | 9 (100% kill) | 0 | SOUTHERN CORN ROOTWORM ([10]; 1 (ppm as headed)): 0
